Assay results as given in paper PMC5523311, “Synergistic Uric Acid-Lowering Effects of the Combination of Chrysanthemum indicum Linne Flower and Cinnamomum cassia (L.) J. Persl Bark Extracts” (Evidence-based Complementary and Alternative Medicine : eCAM, 2017).
≈ marks a conversion by molar mass, not a printed value.

Key:
[1] = molecular target: T1, xanthine oxidase from bovine milk (Bos taurus, UniProt P80457); test: In vitro XOD inhibition assay (uric acid formation at 295 nm); type: biochemical; details: for IC50 XOD activity / IC50: mean of three experiments
T1 construct: xanthine oxidase from bovine milk (0.09 units/mg solid); purchased Sigma-Aldrich (St. Louis, MO, USA); host or cells: bovine milk
T1 sequence (P80457 whole entry): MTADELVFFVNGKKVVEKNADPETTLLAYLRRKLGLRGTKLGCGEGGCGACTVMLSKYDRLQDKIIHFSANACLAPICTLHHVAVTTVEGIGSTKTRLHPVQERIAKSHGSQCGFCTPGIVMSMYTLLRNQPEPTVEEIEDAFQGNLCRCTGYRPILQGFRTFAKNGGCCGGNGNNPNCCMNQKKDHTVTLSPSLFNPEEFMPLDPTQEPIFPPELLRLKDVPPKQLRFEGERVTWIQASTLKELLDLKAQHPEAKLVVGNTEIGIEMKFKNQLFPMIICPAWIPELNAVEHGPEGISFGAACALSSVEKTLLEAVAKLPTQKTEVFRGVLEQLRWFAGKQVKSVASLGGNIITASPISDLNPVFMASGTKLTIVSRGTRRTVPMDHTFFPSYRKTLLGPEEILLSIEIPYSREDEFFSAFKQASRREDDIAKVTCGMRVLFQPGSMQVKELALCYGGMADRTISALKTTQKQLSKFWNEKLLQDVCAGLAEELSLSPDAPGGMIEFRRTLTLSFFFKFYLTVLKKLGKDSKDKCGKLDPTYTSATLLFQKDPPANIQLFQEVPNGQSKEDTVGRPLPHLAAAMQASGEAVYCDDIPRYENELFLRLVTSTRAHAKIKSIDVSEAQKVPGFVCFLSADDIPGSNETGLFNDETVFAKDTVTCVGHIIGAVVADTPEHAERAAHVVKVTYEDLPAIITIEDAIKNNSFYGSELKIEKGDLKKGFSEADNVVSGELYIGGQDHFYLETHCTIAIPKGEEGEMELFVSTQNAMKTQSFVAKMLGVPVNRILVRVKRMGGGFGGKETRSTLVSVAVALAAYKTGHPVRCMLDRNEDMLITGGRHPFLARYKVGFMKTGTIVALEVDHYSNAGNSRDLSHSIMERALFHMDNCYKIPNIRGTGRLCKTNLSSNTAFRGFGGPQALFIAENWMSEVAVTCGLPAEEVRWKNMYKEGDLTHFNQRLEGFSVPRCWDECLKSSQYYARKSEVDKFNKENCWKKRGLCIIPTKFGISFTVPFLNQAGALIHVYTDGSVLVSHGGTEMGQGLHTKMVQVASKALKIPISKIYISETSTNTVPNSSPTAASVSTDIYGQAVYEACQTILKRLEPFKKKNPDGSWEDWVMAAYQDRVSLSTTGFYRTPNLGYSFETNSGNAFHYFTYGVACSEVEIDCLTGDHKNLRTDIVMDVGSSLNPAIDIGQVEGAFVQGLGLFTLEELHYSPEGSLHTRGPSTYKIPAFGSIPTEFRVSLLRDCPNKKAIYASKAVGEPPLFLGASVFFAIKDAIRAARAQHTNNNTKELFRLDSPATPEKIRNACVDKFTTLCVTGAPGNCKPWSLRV
Method: Inhibition of XOD activity was analyzed based on decreases in uric acid formation at 295 nm at 37°C using a spectrophotometer. […] Test samples were dissolved in DMSO (final concentration 0.1%, v/v) to final concentrations appropriate for the tested dose. […] All the experiments were performed in triplicate, and IC50 values are expressed as the means of three experiments [26].

[2] = test system: PO-induced hyperuricemic rats; test: Serum uric acid levels in PO-induced hyperuricemic rats; type: in vivo, rat; details: 10 mg/kg oral
Method: (§1) For hyperuricemia induction, the uricase inhibitor potassium oxonate (PO) was administered as previously described, with slight modifications. For the experiment regarding the effects of CF, CB, and various CC mixtures, the rats were divided into the following 10 groups (n = 8/group) based on body weight: (1) a normal control group (NC), (2) a hyperuricemia control group (PO), (3) a PO + CF group, (4) a PO + CB group, (5) a PO + CC11 group, (6) a PO + CC12 group, (7) a PO + CC14 group, (8) a PO + CC21 group, (9) a PO + CC41 group, and (10) a PO + AP group. […]
(§2) Urine samples were collected during 2 h after the final administration experiment and centrifuged (3000g, 10 min, 4°C) to remove particulate contaminants, and the supernatants were stored at −80°C until analysis. […] Serum and urine uric acid (SUA and UUA, resp.) levels were determined by an enzymatic-colorimetric method using commercial assay kits (Biovision, USA) according to manufacturer's protocols. Serum and urine creatinine levels were analyzed by an autoanalyzer (Hitachi-7020, Hitachi Medical, Japan). Fractional excretion of uric acid (FEUA) was calculated by the formula FEUA (%) = (urine uric acid levels [mg/dl] × Serum Creatinine levels [mg/dl])/(serum uric acid levels [mg/dl] × urine creatinine levels [mg/dl]) × 100.

[3] = test system: normal rats; test: Serum uric acid levels in normal rats; type: in vivo, rat; details: 10 mg/kg oral, Figure 1(b)
Method: The rats were randomized into the following 9 groups (n = 8/group) based on body weight: (1) a normal control group (NC), (2) a CF group, (3) a CB group, (4) a CC11 group, (5) a CC12 group, (6) a CC14 group, (7) a CC21 group, (8) a CC41 group, and (9) an AP group. The rats of NC group were treated with vehicle (0.5% CMC solution). CF, CB, and various CC mixtures in 0.5% CMC solution were given to the rats via oral gavage at a dose of 200 mg/kg. Allopurinol in 0.5% CMC solution was administered at a dose of 10 mg/kg.
as §2, with “analysis. Blood samples were collected via cardiac puncture under anesthesia 2 h after urine collection following PO injection.” for “analysis.”

[4] = test system: PO-induced hyperuricemic rats; test: Urine uric acid, FEUA and creatinine in PO-induced hyperuricemic rats; type: in vivo, rat; details: 10 mg/kg oral
Method: as §1, §2

[5] = test system: PO-induced hyperuricemic mice; set-up: method as in Wang et al. [23] and Meng et al. [32]; details: ref Wang et al. [23] and Meng et al. [32]; cited from earlier work
[6] = read-out: % inhibition of XOD activity

SMILES | % inhibition of XOD activity ([1]; 62.5 μg/ml) [%] | % inhibition of XOD activity ([1]; 125 μg/ml) [%] | % inhibition of XOD activity ([1]; 250 μg/ml) [%] | IC50 XOD activity [1] [µg/mL] | inhibition at 62.5 µg/mL ([1]; 62.5 μg/ml) [%] | inhibition at 125 µg/mL ([1]; 125 μg/ml) [%] | inhibition at 250 µg/mL ([1]; 250 μg/ml) [%] | IC50 [1] [µM] | other results
O=C(/C=C/c1ccc(O)c(O)c1)O[C@@H]1[C@H](O)C[C@@](O)(C(=O)O)C[C@H]1OC(=O)/C=C/c1ccc(O)c(O)c1 (stereo in doubt) [3,4-Dicaffeoylquinic acid, 3,4-dicaffeoylquinic acid] | 21.0 ± 1.5 | 104.6 ± 2.6 | 85.0 ± 1.2 | 79.7 (≈ 154 µM) |  |  |  |  | 
Oc1ncnc2[nH]ncc12 [Allopurinol, allopurinol] |  |  |  |  |  |  |  |  | inhibition at 6.25 µg/mL [1, 6]: 51.7 ± 0.7%; inhibition at 12.5 µg/mL [1, 6]: 71.7 ± 0.1%; inhibition at 25 µg/mL [1, 6]: 80.3 ± 0.3%; Reduction of serum uric acid levels compared with the PO group ([2]; PO-induced hyperuricemic rats, Figure 1(a)): 75%; Reduction of serum uric acid levels ([2]; dose-dependence experiment, Figure 2(a)): 66%; Decrease of serum uric acid levels compared with the NC group [3]: 70%; Effect on urine uric acid levels ([4]; Figure 2(b)): did not affect; Effect on FEUA ([4]; Figure 2(c), p < 0.05): increased the FEUA
O=C(/C=C/c1ccc(O)c(O)c1)O[C@@H]1C[C@](O)(C(=O)O)C[C@@H](O)[C@H]1O [Chlorogenic acid] |  |  |  |  | 24 ± 1.7 | 63.6 ± 1.5 | 107.3 ± 0.6 | 293 | Effect on serum uric acid levels by inhibiting XOD activity [5]: significantly decreased
O=C/C=C/c1ccccc1 [Cinnamaldehyde, cinnamaldehyde] |  |  |  |  | 101 ± 3.2 | 126 ± 5.6 | 119 ± 35.1 | 331 | Effect on serum uric acid levels by inhibiting XOD activity [5]: significantly decreased
O=c1ccc2ccccc2o1 [Coumarin, coumarin] |  |  |  |  | 22.8 ± 0.1 | 75.1 ± 1 | 103.9 ± 0.7 | 651 | 
COc1ccccc1C=CC=O [o-Methoxycinnamaldehyde, o-methoxycinnamaldehyde] | 104.7 ± 0.2 | 101.2 ± 0.2 | 100.0 ± 0.4 | 25.7 (≈ 158 µM) |  |  |  |  | 
O=C(O)/C=C/c1ccccc1 [trans-Cinnamic acid, trans-cinnamic acid] | 54.3 ± 0.7 | 96.7 ± 1.9 | 114.9 ± 0.4 | 58.8 (≈ 397 µM) |  |  |  |  | 
